According to patent US20220275018A1, “NOVEL SPIROBICYCLIC INTERMEDIATES” (Janssen Pharmaceutica NV, priority 2019, published 2022):

What was measured:
[1] = target: human PRMT5 complex enzyme (Homo sapiens, UniProt O14744); assay: PRMT5 inhibition study ([3H]SAM / Histone H4 methylation, filter scintillation counting); type: biochemical; conditions: 30 μM test compound; 120 min at 22° C.; 600 nM [3H]SAM, 250 nM Histone H4 full length; percent inhibition of the control enzyme activity
Method: The test compound, reference compound, or water (control) were incubated for 120 min at 22° C. with about 200 ng human PRMT5 complex enzyme, 600 nM [^3H]SAM and 250 nM Histone H4 full length in a buffer containing 45 mM Tris-HCl (pH 9), 45 mM NaCl, 4.5 mM MgCl2 and 3.6 mM DTT (Dithiothreitol).
For control basal measurements, the enzyme was omitted from the reaction mixture. Following incubation, the reaction was stopped by adding 33 mM citric acid and the samples were filtered rapidly in vacuo through glass fiber filters (GF/B, Packard) presoaked with 33 mM citric acid and rinsed several times with ice-cold 33 mM citric acid using a 96-sample cell harvester (Unifilter, Packard). The filters were dried then counted for radioactivity in a scintillation counter (Topcount, Packard) using a scintillation cocktail (Microscint 0, Packard).
The results were expressed as a percent inhibition of the control enzyme activity.

Chain of human PRMT5 complex enzyme (O14744 whole entry): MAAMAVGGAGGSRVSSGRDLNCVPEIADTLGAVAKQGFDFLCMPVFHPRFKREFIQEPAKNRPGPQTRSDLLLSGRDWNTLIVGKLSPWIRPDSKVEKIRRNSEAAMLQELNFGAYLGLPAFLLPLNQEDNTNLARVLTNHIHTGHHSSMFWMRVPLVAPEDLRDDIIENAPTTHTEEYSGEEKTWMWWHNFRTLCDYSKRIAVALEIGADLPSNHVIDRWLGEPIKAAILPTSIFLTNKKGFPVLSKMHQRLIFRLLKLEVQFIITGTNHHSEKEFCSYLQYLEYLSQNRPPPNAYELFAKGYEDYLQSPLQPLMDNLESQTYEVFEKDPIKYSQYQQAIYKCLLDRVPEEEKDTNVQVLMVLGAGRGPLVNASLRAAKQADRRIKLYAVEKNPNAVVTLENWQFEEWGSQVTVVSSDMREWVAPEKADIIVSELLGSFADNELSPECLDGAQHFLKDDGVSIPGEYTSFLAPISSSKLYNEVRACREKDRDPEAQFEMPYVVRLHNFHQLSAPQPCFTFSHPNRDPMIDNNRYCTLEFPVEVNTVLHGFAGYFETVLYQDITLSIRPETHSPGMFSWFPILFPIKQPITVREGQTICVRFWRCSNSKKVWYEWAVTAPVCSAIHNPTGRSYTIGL
Chain of human PRMT5 complex enzyme (Q9BQA1 whole entry partner): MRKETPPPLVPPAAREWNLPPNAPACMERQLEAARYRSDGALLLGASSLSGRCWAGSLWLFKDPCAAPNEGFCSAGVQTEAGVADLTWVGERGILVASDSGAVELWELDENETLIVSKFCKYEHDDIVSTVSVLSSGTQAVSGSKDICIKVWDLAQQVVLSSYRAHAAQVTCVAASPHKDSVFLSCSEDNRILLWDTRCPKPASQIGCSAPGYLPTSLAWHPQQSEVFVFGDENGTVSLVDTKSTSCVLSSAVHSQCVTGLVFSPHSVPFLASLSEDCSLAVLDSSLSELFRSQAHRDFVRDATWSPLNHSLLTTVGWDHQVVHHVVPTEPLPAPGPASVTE

inhibition at 30 µM [1] | SMILES | further results
37.7% | Nc1ncnc2c1ncn2[C@@H]1O[C@]2(C[C@H](O)C2)[C@@H](O)[C@H]1O | –
70.3% | Nc1ncnc2c1ncn2[C@@H]1O[C@]2(C[C@@H](O)C2)[C@@H](O)[C@H]1O | –
100% | Nc1ncnc2c1ccn2[C@@H]1C[C@]2(C[C@H](Cc3cccnc3)C2)[C@@H](O)[C@H]1O | –
99.8% | Nc1ncnc2c1ccn2[C@@H]1C[C@]2(C[C@@H](Cc3cccnc3)C2)[C@@H](O)[C@H]1O | –
102% | Nc1ncnc2c1ccn2[C@@H]1C[C@]2(C[C@@H](Cc3ccn4ccnc4c3)C2)[C@@H](O)[C@H]1O | –
69.8% | CCCN[C@H]1C[C@]2(C[C@@H](n3cnc4c(N)ncnc43)[C@H](O)[C@@H]2O)C1 | –
46.3% | Nc1ncnc2c1ccn2[C@@H]1O[C@]2(C[C@@H](N)C2)[C@@H](O)[C@H]1O | –
33.8% | CCCN[C@H]1C[C@]2(C1)O[C@@H](n1cnc3c(N)ncnc31)[C@H](O)[C@@H]2O | –
98% | Nc1ncnc2c1ncn2[C@@H]1O[C@@]2(CC[C@H]2O)C(O)C1O (stereo partly drawn) | –
42% | Nc1ncnc2c1ncn2[C@@H]1O[C@@]2(CC[C@@H]2O)C(O)C1O (stereo partly drawn) | –
79% | NC[C@H]1C[C@]12O[C@@H](n1cnc3c(N)ncnc31)C(O)C2O (stereo partly drawn) | –
16% | CCCN(C)C[C@H]1C[C@]12O[C@@H](n1cnc3c(N)ncnc31)C(O)C2O (stereo partly drawn) | –
39% | CCCNC[C@H]1C[C@]12O[C@@H](n1cnc3c(N)ncnc31)C(O)C2O (stereo partly drawn) | –
72% | Nc1ncnc2c1ncn2[C@@H]1O[C@@]2(C[C@H]2O)C(O)C1O (stereo partly drawn) | –
29% | Nc1ncnc2c1ncn2[C@@H]1O[C@@]2(C[C@@H]2CO)C(O)C1O (stereo partly drawn) | –
84% | Nc1ncnc2c1ncn2[C@@H]1O[C@]2(C[C@@H]2CO)C(O)C1O (stereo partly drawn) | –
31% | Nc1ncnc2c1ncn2[C@@H]1O[C@]2(C[C@H]2CO)C(O)C1O (stereo partly drawn) | –
– | C=C1O[C@@H]2OC(C)(C)O[C@@H]2[C@@H]1OCc1ccc2ccccc2c1 [Compound 66.2] | melting point: 102.01 °C
– | CC1(C)O[C@H]2OC3(CC(=O)C3)[C@@H](OCc3ccc4ccccc4c3)[C@H]2O1 [Compound 66.4] | melting point: 101.79 °C
36.4% | Nc1ncnc2c1ncn2[C@@H]1O[C@@]2(C[C@H]2CO)C(O)C1O (stereo partly drawn) [drawing 332] | –
– | Nc1ncnc2c1ncn2[C@@H]1O[C@@]2(C[C@H]2CO)C(O)C1O (stereo partly drawn) [drawing 333] | % PRMT5 inhibition at 30 μM [1]: 55.9%
